The text below walks through data of US6635641B2 (Agouron Pharmaceuticals, Inc., priority 2000, dated 2003).

The test deals with T1, phosphorylated VEGF-R2Δ50 (FLVK-P) (Homo sapiens, UniProt P35968, DEL940-989/E990V).
T1 construct: VEGF-R2Δ50 contains residues 806-939 and 990-1171; made in house; host or cells: baculovirus/insect cells
Description: VEGF-R2 coupled spectrophotometric assay, phosphorylated construct (FLVK-P). Particulars: for inhibition at 1 µM / inhibition at 5 µM / inhibition at 0.05 µM: read-out: FLVK-P percent inhibition; for inhibition at 0.05 µM: @ 50 nM. In kind it is biochemical. The source says: A construct (VEGF-R2Δ50) of the cytosolic domain of human vascular endothelial growth factor receptor 2 (VEGF-R2) lacking the 50 central residues of the 68 residues of the kinase insert domain was expressed in a baculovirus/insect cell system. Of the 1356 residues of full-length VEGF-R2, VEGF-R2Δ50 contains residues 806-939 and 990-1171, and also one point mutation (E990V) within the kinase insert domain relative to wild-type VEGF-R2. See commonly assigned, co-pending U.S. patent application Ser. No. 09/390,326, filed Sep. 7, 1999, incorporated by reference herein, for discussion of VEGF constructs and expression systems. Autophosphorylation of the purified construct was performed by incubation of the enzyme at a concentration of 4 μM in the presence of 3 mM ATP and 40 mM MgCl2 in 100 mM Hepes, pH 7.5, containing 5% glycerol and 5 mM DTT, at 4° C. for 2 h. […] See Parast et al., Biochemistry, 37, 16788-16801 (1998).
The production of ADP from ATP that accompanies phosphoryl transfer was coupled to oxidation of NADH using phosphoenolpyruvate (PEP) and a system having pyruvate kinase (PK) and lactic dehydrogenase (LDH). The oxidation of NADH was monitored by following the decrease of absorbance at 340 nm (e340=6.22 cm^−1 mM^−1) using a Beckman DU 650 spectrophotometer. Assay conditions for phosphorylated VEGF-R2Δ50 (indicated as FLVK-P in the tables below) were the following: 1 mM PEP; 250 μM NADH; 50 units of LDH/mL; 20 units of PK/mL; 5 mM DTT; 5.1 mM poly(E4Y1); 1 mM ATP; and 25 mM MgCl2 in 200 mM Hepes, pH 7.5. Assay conditions for unphosphorylated VEGF-R2Δ50 (indicated as FLVK in the tables) were the following: 1 mM PEP; 250 μM NADH; 50 units of LDH/mL; 20 units of PK/mL; 5 mM DTT; 20 mM poly(E4Y1); 3 mM ATP; and 60 mM MgCl2 and 2 mM MnCl2 in 200 mM Hepes, pH 7.5. Assays were initiated with 5 to 40 nM of enzyme. Ki values were determined by measuring enzyme activity in the presence of varying concentrations of test compounds. The data were analyzed using Enzyme Kinetic and Kaleidagraph software.

Counter-ions that a name gives are not always drawn. Like-named read-outs stand apart in the source and are kept apart here.

T1 sequence (P35968 with tags, fused parts or gaps DEL940-989/E990V limits assumed): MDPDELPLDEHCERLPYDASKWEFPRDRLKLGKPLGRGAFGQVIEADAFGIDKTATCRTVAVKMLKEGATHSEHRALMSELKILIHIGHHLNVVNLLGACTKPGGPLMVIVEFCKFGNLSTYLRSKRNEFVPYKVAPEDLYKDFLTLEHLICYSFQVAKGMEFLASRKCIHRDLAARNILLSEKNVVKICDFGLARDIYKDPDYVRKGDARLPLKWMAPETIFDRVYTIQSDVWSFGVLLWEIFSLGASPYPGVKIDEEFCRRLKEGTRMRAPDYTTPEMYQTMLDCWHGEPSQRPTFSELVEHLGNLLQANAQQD

For the compound `COc1cc(NC(=O)c2cccc(CSc3nc(N)n[nH]3)c2)cc(OC)c1OC` [Example A-2, N-(3,4,5-Trimethoxyphenyl)-3-[(5-amino-2H-[1,2,4]triazol-3-yl)sulfanylmethy]benzamide], the Ki (as a rule, a dissociation constant, usually derived from enzyme kinetics or from competition with a known ligand) (μM) amounted to 100 µM.

Compound `O=C(Nc1ccc2ncccc2c1)c1cccc(OCc2cccnc2)c1` [Example K-8, 3-(Pyridin-3-yl)methoxy-N-quinolin-6-yl-benzamide] had a Ki of 0.707 µM.

`COc1ccc(NC(=O)c2cccc(CSc3ncnc4[nH]ncc34)c2)cn1` [Example B-2] gave a Ki of 1.82 µM. On to `CC(C)c1ccc(NC(=O)c2cccc(CSc3ncnc4[nH]ncc34)c2)cc1` [Example B-19, 3-[(1H-Pyrazolo[3,4-d]pyrimidin-4-yl)sulfanylmethyl]-N(4-isopropylphenyl)-benzamide], for which the inhibition (commonly the change of the read-out against control, counted positive when it falls) at 1 µM amounted to 42%.

In turn, `O=C(NCc1ccncc1)c1cccc(CSc2ncnc3[nH]ncc23)c1` [Example B-5, N-(Pyridin-4-yl)methyl-3-[(1H-pyrazolo[3,4-d]pyrimidin-4-yl)sulfanylmethyl]benzamide] yielded an inhibitory constant (Ki) of 11 µM. Still for that read-out and setting: in the case of `COc1cc(NC(=O)c2cccc(OCc3cccnc3)c2)cc(OC)c1OC` [Example K-5, 3-(Pyridin-3-yl)methoxy-N-(3,4,5-trimethoxyphenyl)benzamide] it was 1.27 µM.

In turn, `O=C(Nc1cccc(OC(F)(F)F)c1)c1cccc(CSc2ncnc3[nH]ncc23)c1` [Example B-20] gave a Ki of 0.026 µM.

`O=C(NOCc1ccccc1)c1cccc(OCc2cncc3ccccc23)c1` [Example R-7, N-Benzyloxy-3-(isoquinolin-4-ylmethoxy)-benzamide] returned a Ki of 0.325 µM. As for `COc1ccccc1CNC(=O)c1cccc(CSc2ncnc3[nH]ncc23)c1` [Example B-7, N-(2-Methoxybenzyl)-3-[(1H-pyrazolo[3,4-d]pyrimidin-4-yl)sulfanylmethyl]benzamide], affinity was put at a Ki of 3.31 µM. The compound `Cc1cc(NC(=O)c2cccc(CSc3nc(N)n[nH]3)c2)ccc1C(C)C` [Example A-4, N-(4-Isopropyl-3-methylphenyl)-3-[(5-amino-2H-[1,2,4]triazol-3-yl)sulfanylmethyl]benzamide] showed an inhibition constant (Ki) of 13 µM.

As to `CC1CC(NC(=O)c2cccc(CCc3cncc4ccccc34)c2)CC(C)(C)C1` (stereo not drawn) [Example S-2, 3-(2-Isoquinolin-4-yl-ethyl)-N-(3,3,5-trimethyl-cyclohexyl)-benzamide], the inhibition at 1 µM was 28%.

On to `COc1cc(/C=C/c2cc(CNc3cccc(C(=O)Nc4ccccc4)c3)n[nH]2)ccc1O` [Example I-2, 3-[({5-[(E)-2-(4-hydroxy-3-methoxyphenyl)ethenyl]-1H-pyrazol-3-yl}methyl)amino]-N-phenylbenzamide], for which the inhibition at 1 µM was 16%. For the compound `CN(C)c1ccc(NC(=O)c2cccc(CSc3ncnc4[nH]ncc34)c2)cc1` [Example B-23, 3-[(1H-Pyrazolo[3,4-d]pyrimidin-4-yl)sulfanylmethyl]-N(4-dimethylaminophenyl)-benzamide], the inhibition at 1 µM was found to be 17%. As for `O=C(NNc1ccc(C(F)(F)F)cc1)c1cccc(OCc2cncc3ccccc23)c1` [Example R-6, 3-(Isoquinolin-4-ylmethoxy)-benzoic acid N′-(4-trifluoromethyl-phenyl)hydrazide], the inhibition at 5 µM was 16%. Consider `Cc1ccc2cc(NC(=O)c3cccc(CCc4cccnc4)c3)ccc2n1` [Example U-1, N-(2-Methyl-quinolin-6-yl)-3-(2-pyridin-3-yl-ethyl)-benzamide hydrochloride], for which the affinity corresponds to a Ki of 0.068 µM.

In the case of `COc1cc(NC(=O)c2cccc(OCc3cncc4ccccc34)c2)cc(OC)c1OC` [Example K-2, 3-(Isoquinolin-4-yl)methoxy-N-(3,4,5-trimethoxyphenyl)benzamide hydrochloride], the affinity corresponds to a Ki of 0.138 µM. `COc1ccccc1NC(=O)c1cccc(CSc2ncnc3[nH]ncc23)c1` [Example B-9, N-(2-Methoxyphenyl)-3-[(1H-pyrazolo[3,4-d]pyrimidin-4-yl)sulfanylmethyl]benzamide] had a Ki of 17 µM. In turn, `Cc1cc(NC(=O)c2cc(CCc3cncc4ccccc34)ccc2F)ccc1C(C)C` [Example T-1, 2-Fluoro-N-(4-isopropyl-3-methyl-phenyl)-5-(2-isoquinolin-4-yl-ethyl)-benzamide] displayed a Ki of 0.0136 µM.

On to `O=C(NNc1ccccc1)c1cccc(OCc2cncc3ccccc23)c1` [Example R-8, 3-(Isoquinolin-4-ylmethoxy)-benzoic acid N′-phenyl-hydrazide], for which the inhibition at 5 µM stood at 4%.

In the case of `O=C(Nc1ccc2ccccc2c1)c1cccc(OCc2cccnc2)c1` [Example K-6, N-(Naphthalen-2-yl)-3-(pyridin-3-yl)methoxybenzamide], the affinity corresponds to a Ki of 0.2 µM.

Consider `Cc1cc(C)nc(NC(=O)c2cccc(CCc3cncc4ccccc34)c2)c1` [Example S-6, N-(4,6-Dimethyl-pyridin-2-yl)-3-(2-isoquinolin-4-yl-ethyl)-benzamide], for which the inhibition at 0.05 µM was 6%.

In turn, `Cc1ccc2cc(NC(=O)c3cccc(SCc4cccnc4)c3)ccc2n1` [Example D-3, N-(2-Methyl-quinolin-6-yl)-3-(pyridin-3-ylmethylsulfanyl)-benzamide dihydrochloride] returned an inhibition constant (Ki) of 0.133 µM. Consider `Cc1cc(NC(=O)c2cccc(CSc3ncnc4[nH]ncc34)c2)no1` [Example B-4, N-(5-Methylisoxazol-3-yl)-3-[(1H-pyrazolo[3,4-d]pyrimidin-4-yl)sulfanylmethyl]benzamide], for which the Ki amounted to 35 µM.

With `O=C(Nc1ccccc1)c1cccc(CCc2cncc3ccccc23)c1` [Example S-1, 3-(2-Isoquinolin-4-yl-ethyl)-N-phenyl-benzamide], the inhibition at 1 µM amounted to 2%. On to `COc1cc(C(=O)Nc2cccc(CSc3ncnc4[nH]ncc34)c2)ccc1O` [Example V-3, N-{3-[(1H-pyrazolo[3,4-d]-pyrimidin-4-yl)sulfanylmethyl]phenyl}-(4-hydroxy-3-methoxy)benzamide], for which the inhibition at 1 µM came to 42%. In the case of `Cc1cc(C)c2ccc(NC(=O)c3cccc(OCc4cncc5ccccc45)c3)nc2n1` [Example R-9, N-(5,7-dimethyl[1,8]naphthydrin-2-yl)-3-(isoquinolin-4-ylmethoxy)-benzamide], the inhibition at 1 µM was 9%. For the compound `C=CCc1cc(NC(=O)c2cccc(OCc3cncc4ccccc34)c2)cc(CC=C)c1C` [Example R-1, N-(3,5-Diallyl-4-methyl-phenyl)-3-(isoquinolin-4-ylmethoxy)-benzamide], the inhibition at 0.05 µM was 49%. Consider `CN(C)c1cccc(NC(=O)c2cccc(CSc3ncnc4[nH]ncc34)c2)c1` [Example B-25, 3-[(1H-Pyrazolo[3,4-d]pyrimidin-4-yl)sulfanylmethyl]-N(3-dimethylaminophenyl)-benzamide], for which the inhibition at 1 µM came out at 26%. Compound `C=CCn1ccc2cc(NC(=O)c3cccc(OCc4cccnc4)c3)ccc21` [Example K-7, N-(1-Allyl-1H-indol-5-yl)-3-(pyridin-3-yl)methoxy-benzamide] yielded a Ki of 0.122 µM. `Cc1cc(C)cc(NC(=O)c2cccc(CSc3ncnc4[nH]ncc34)c2)c1` [Example B-21, 3-[(1H-Pyrazolo[3,4-d]pyrimidin-4-yl)sulfanylmethyl]-N(3,5-dimethylphenyl)-benzamide] had an inhibition constant (Ki) of 0.208 µM.
